One assay has as its target human cathepsin K (UniProt P43236). Briefly: Cathepsin K Assay (hrbCat K). The conditions noted are these: human cathepsin K 0.4 nM, Z-Leu-Arg-AMC 8 μM, pH 5.5, 15 min preincubation; read-out: hrbCat K IP. The format is biochemical. In outline:
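Human cathepsin K (0.4 nM) in pH 5.5 MES buffer with EDTA, DTT and 10% DMSO was preincubated 15 min at room temperature with compound from a ⅓ dilution series (500-0.025 μM DMSO stocks). Z-Leu-Arg-AMC (8 μM) was then added, and AMC release was followed fluorometrically (Ex 360/Em 460 nm) for 30 min; inhibition was fitted to a dose-response model.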

In the next assay the target is T1, human cathepsin F (Homo sapiens, UniProt Q9UBX1).
T1 sequence (Q9UBX1 271-484): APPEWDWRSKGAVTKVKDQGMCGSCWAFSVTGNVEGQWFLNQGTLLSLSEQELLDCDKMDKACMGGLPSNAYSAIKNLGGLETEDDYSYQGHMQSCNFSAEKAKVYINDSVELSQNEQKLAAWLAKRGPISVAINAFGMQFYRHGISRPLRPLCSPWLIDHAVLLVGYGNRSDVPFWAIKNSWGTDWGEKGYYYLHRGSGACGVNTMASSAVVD
Briefly: Cathepsin F assay (hCat F). The format is biochemical. The following applies: human cathepsin F 10 nM, Z-Phe-Arg-AMC 8 μM, pH 5.5, 15 min preincubation; read-out: hCat F IP. In outline: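 Fluorogenic read-out: cleavage of Z-Phe-Arg-AMC (8 μM in added buffer) was followed at Ex 360/Em 460 nm for 20 min, with dose-response fitting of percent inhibition. Before substrate addition, 10 nM human enzyme was incubated 15 min at room temperature with compounds (DMSO stocks 500–0.025 μM) in pH 5.5 MES/EDTA/DTT buffer containing 10% DMSO.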

As for `Cc1nc(-c2ccc(N3CCS(=O)(=O)CC3)cc2)c([C@@H]2CCCC[C@H]2C(=O)NC2(C#N)CC2)o1` [Example 14, (1R,2R)-N-(1-cyanocyclopropyl)-2-(4-(4-(1,1-dioxidothiomorpholino)phenyl)-2-methyloxazol-5-yl)cyclohexanecarboxamide], the figures for the IC50 at human cathepsin K and on human cathepsin F were 1.08 nM and 1330 nM, respectively.
With `Cc1nc(-c2ccc(N3CC(S(C)(=O)=O)C3)cc2)c([C@@H]2CCCC[C@H]2C(=O)NC2(C#N)CC2)s1` [Example 55, (1R,2R)-N-(1-cyanocyclopropyl)-2-(2-mcthyl-4-(4-(3-(methylsulfonyl)azetidin-1-yl)phenyl)thiazol-5-yl)cyclohexanecarboxamide], the IC50 on human cathepsin K was determined as 4.15 nM; at human cathepsin F it was 5480 nM.
For `N#CC1(NC(=O)[C@@H]2CCCC[C@H]2c2oc(-c3ccccc3F)nc2-c2ccc(N3CCS(=O)(=O)CC3)cc2)CC1` [Example 67, (1R,2R)-N-(1-cyanocyclopropyl)-2-(4-(4-(1,1-dioxidothiomorpholino)phenyl)-2-(2-fluorophenyl)oxazol-5-yl)cyclohexanecarboxamide], in that order: 0.57 nM and 619 nM.
For `N#CC1(NC(=O)[C@@H]2CCCC[C@H]2c2oc(-c3cc(F)cc(F)c3)nc2-c2ccc(N3CCS(=O)(=O)CC3)cc2)CC1` [Example 34, (1R,2R)-N-(1-cyanocyclopropyl)-2-(2-(3,5-difluorophenyl)-4-(4-(1,1-dioxidothiomorpholino)phenyl)oxazol-5-yl) cyclohexanecarboxamide], in that order: 0.85 nM and 442 nM.
For `CC(C)(C#N)NC(=O)[C@@H]1CCCC[C@H]1c1oc(-c2ccc(F)cc2F)nc1-c1ccc(N2CCS(=O)(=O)CC2)cc1` [Example 43, (1R,2R)-N-(2-cyanopropan-2-yl)-2-(2-(2,4-difluorophenyl)-4-(4-(1,1-dioxidothiomorpholino)phenyl)oxazol-5-yl)cyclohexanecarboxamide], in that order: 15.7 nM and 1650 nM.
As to `N#CC1(NC(=O)[C@@H]2CCCC[C@H]2c2oc(-c3ccc(F)cn3)nc2-c2ccc(N3CCS(=O)(=O)CC3)cc2)CC1` [Example 32, (1R,2R)-N-(1-cyanocyclopropyl)-2-(4 (4-(1,1-dioxidothiomorpholino)phenyl)-2-(5-fluoropyridin-2-yl)oxazol-5-yl)cyclohexanecarboxamide], the values for the IC50 on human cathepsin K and at human cathepsin F were 3.12 nM and 2490 nM, respectively.
For `N#CC1(NC(=O)[C@@H]2CCCC[C@H]2c2oc(-c3ccncc3F)nc2-c2ccc(N3CCS(=O)(=O)CC3)cc2)CC1` [Example 30, (1R,2R)-N-(1-cyanocyclopropyl)-2-(4-(4-(1,1-dioxidothiomorpholino)phenyl)-2-(3-fluoropyridin-4-yl)oxazol-5-yl)cyclohcxanecarboxamide], in that order: 0.43 nM and 757 nM.
For the molecule `Cc1nc(-c2ccc(N3CCS(=O)(=O)CC3)cc2)c([C@@H]2CCCC[C@H]2C(=O)NC2(C#N)CC2)s1` [Example 54, (1R,2R)-N-(1-cyanocyclopropyl)-2-(4-(4-(1,1-dioxidothiomorpholino)phenyl)-2-methylthiazol-5-yl)cyclohexanecarboxamide], the IC50 was 2.31 nM on human cathepsin K and 5310 nM on human cathepsin F.
For `CC1(c2nc(-c3ccc(N4CCS(=O)(=O)CC4)cc3)c([C@@H]3CCCC[C@H]3C(=O)NC3(C#N)CC3)o2)CCOCC1` [Example 99, (1R,2R)-N-(1-cyanocyclopropyl)-2-(4-(4-(1,1-dioxidothiomorpholino)phenyl)-2-(4-methyltetrahydro-2H-pyran-4-yl)oxazol-5-yl)cyclohexanecarboxamide], in that order: 1.89 nM and 2230 nM.
For `N#CC1(NC(=O)[C@@H]2CCCC[C@H]2c2oc(N3CCC(F)(F)CC3)nc2-c2ccc(N3CCS(=O)(=O)CC3)cc2)CC1` [Example 4, (1R,2R)—N-(1-Cyanocyclopropyl)-2-(2-(4,4-difluoropiperidin-1-yl)-4-(4-(1,1-dioxidothiomorpholino)phenyl)oxazol-5-yl)cyclohexanecarboxamide], in that order: 6.37 nM and at least 10000 nM.
For `N#CC1(NC(=O)[C@@H]2C[C@@H](F)CC[C@H]2c2oc(-c3ccc(F)cc3)nc2-c2ccc(N3CCS(=O)(=O)CC3)cc2)CC1` [Example 31, (1R,2R,5S)-N-(1-cyanocyclopropyl)-2-(4-(4-(1,1-dioxidothiomorpholino)phenyl)-2-(4-fluorophenyl)oxazol-5-yl)-5-fluorocyclohexane-carboxamide], in that order: 0.61 nM and 1390 nM.
As for `CC(C)(C)c1ccc(-c2nc(-c3ccc(N4CCS(=O)(=O)CC4)cc3)c([C@@H]3CCCC[C@H]3C(=O)NC3(C#N)CC3)o2)cc1` [Example 89, (1R,2R)-2-(2-(4-(tert-butyl)phenyl)-4-(4-(1,1-dioxidothiomorpholino)phenyl)oxazol-5-yl)-N-(1-cyanocyclopropyl) cyclohexanecarboxamide], the IC50 at human cathepsin K was 1.35 nM; at human cathepsin F it was 819 nM.
For `N#CCNC(=O)[C@@H]1CC(F)(F)CC[C@H]1c1oc(C(F)(F)C(F)(F)F)nc1-c1ccc(C(=O)N2CCOCC2)cc1` [Example 136, (1R,2R)-N-(cyanomethyl)-5,5-difluoro-2-(4-(4-(morpholine-4-carbonyl)phenyl)-2-(perfluoroethyl)oxazol-5-yl)cyclohexanecarboxamide], in that order: 0.74 nM and 319 nM.
For `N#CC1(NC(=O)[C@@H]2CC3CC3C[C@H]2c2oc(-c3ccc(F)cn3)nc2-c2ccc(N3CCS(=O)(=O)CC3)cc2)CC1` (single isomer, unassigned) [Example 9, (1R,3R,4R,6S or 1S,3R,4R,6R)-N-(1-cyanocyclopropyl)-4-(4-(4-(1,1-dioxidothiomorpholino)phenyl)-2-(5-fluoropyridin-2-yl)oxazol-5-yl)bicyclo[4.1.0]heptane-3-carboxamide], in that order: 3.54 nM and 1180 nM.
For `CC(C)(C)c1nc(-c2ccc(N3CCS(=O)(=O)CC3)cc2)c([C@@H]2CCC(F)(F)C[C@H]2C(=O)NC2(C#N)CC2)s1` [Example 58, (1R,2R)-2-(2-(tert-butyl)-4-(4-(1,1-dioxidothiomorpholino)phenyl)thiazol-5-yl)-N-(1-cyanocyclopropyl)-5,5-difluorocyclohexane-carboxamide], in that order: 0.67 nM and 72 nM.
With `N#CC1(NC(=O)[C@@H]2CCCC[C@H]2c2oc(-c3cncnc3)nc2-c2ccc(N3CCS(=O)(=O)CC3)cc2)CC1` [Example 35, (1R,2R)-N-(1-cyanocyclopropyl)-2-(4-(4-(1,1-dioxidothiomorpholino)phenyl)-2-(pyrimidin-5-yl)oxazol-5-yl) cyclohexanecarboxamide], the IC50 at human cathepsin K came to 1.11 nM; at human cathepsin F, 993 nM.
For `Cc1nc(-c2ccc(N3CCS(=O)(=O)CC3)cc2)c([C@@H]2CCC(F)(F)C[C@H]2C(=O)NCC#N)o1` [Example 12, (1R,2R)-N-(cyanomethyl)-2-(4-(4-(1,1-dioxidothiomorpholino)phenyl)-2-methyloxazol-5-yl)-5,5-difluorocyclohexane-carboxamide], in that order: 0.29 nM and 327 nM.

(Values after patent publication US9458181B2, “Cathepsin cysteine protease inhibitors” (Merck Sharp & Dohme Corp., priority 2013, dated 2016).)
